{
  "source": "patent US20090186868A1",
  "about": "“Taxane Compound Having Azetidine Ring Structure” (Daiichi Sankyo Company Limited, priority 2005, published 2009)",
  "key": {"[1]": {"system": "HCT116 (human colon cancer cell line)", "test": "Anti-cell activity (MTT) against human tumor cell line HCT116", "type": "cell-based", "conditions": "HCT-116, 72 h, HCT116, cultured three days, read-out: HCT116 (GI50 value, ng/mL)", "experimental": "(§1) Three types of human tumor cell lines (all of the cells were obtained from American Type Culture Collection) were seeded on 96-well microplates as follows.\n(§2) NCI-H460 (human lung cancer cell line): 5.0×10^2 cells/190 μL/well HCT-15 (P glycoprotein (P-gp) expressing human colon cancer cell line, J. Natl. Cancer Inst., 2001, 93:1234-1245): 1.0×10^3 cells/190 μL/well HCT116 (human colon cancer cell line): 1.0×10^3 cells/190 μL/well On the next day, each test compound was dissolved in 100% dimethyl sulfoxide (DMSO) at a concentration of 10 mg/mL. This solution was diluted with 0.01% Cremophor EL-PBS(−) (Cremophor EL: Sigma Chemical Co., St. Louis, Mo., USA, PBS: Invitrogen Corp., Carlsbad, Calif., USA), and 10 μL of the diluted solution was added to each well (final concentration: 100 to 0.000381 ng/mL). The cells were cultured for three days, and then […] of a 5 mg/mL solution of 3-(4,5-dimethylthiazol-2-yl)-2,5-diphenyl-2H-tetrazolium bromide (MTT, Sigma Chemical Co.) was added to each well. The cells were further cultured for 4 hours, and then the medium was removed by centrifugation. By adding 150 μL of DMSO to each well, the produced formazan product was dissolved. The absorbance of the solution was measured at 540 nm. The drug concentration suppressing cell proliferation of the drug addition group to 50% of the cell proliferation of the drug free group (GI50 value, ng/mL) was calculated, and used as an index of anti-cell activity."}, "[2]": {"test": "Solubility in first and second solution for disintegration test (Japanese Pharmacopoeia)", "type": "physicochemical", "conditions": "thermodynamic from solid, 12 hours or longer", "experimental": "Solubility of each compound was determined in the first solution for disintegration test according to Japanese Pharmacopoeia (henceforth referred to as the first solution, solution obtained by adding 7 mL of hydrochloric acid and water to 2.00 g of sodium chloride to dissolve sodium chloride and fill up the solution to 1000 mL, pH 1.2) and the second solution for disintegration test according to Japanese Pharmacopoeia (henceforth referred to as the second solution, solution obtained by adding 118 mL of 0.2 mol/L solution of sodium hydroxide to 6.80 g of potassium dihydrogenphosphate, adding water to the mixture to dissolve potassium dihydrogenphosphate and filling up the solution to 1000 mL, pH 6.8).\nEach test compound was dissolved in 100% dimethyl sulfoxide (DMSO) at a concentration of 10 mM, and 50 μL of the solution was lyophilized. The lyophilized test compound was added with 250 μL of the first solution or second solution, and the mixture was stored at room temperature for 12 hours or longer under light shielding, and filtered (0.7 μm). The filtrate was taken in a volume of 90 μL, and added with 50% DMSO (90 μL) to obtain a two-fold diluted solubility sample. The two-fold dilution solubility sample was taken in a volume of 20 μL, and added with 50% DMSO (180 μL) to obtain a […] diluted solubility sample. Solubility of each test sample was determined by quantifying the test compound in the resulting diluted solubility test samples using high-performance liquid chromatography."}, "[3]": {"system": "HCT-15 (P glycoprotein (P-gp) expressing human colon cancer cell line)", "test": "Anti-cell activity (MTT) against human tumor cell line HCT-15", "type": "cell-based", "conditions": "72 h, HCT-15 (P-gp expressing), cultured three days, read-out: HCT-15 (GI50 value, ng/mL)", "experimental": "as §1, §2"}, "B16 melanoma BL6": {"system": "B16 melanoma BL6", "test": "Antitumor effect in mice subcutaneously transplanted with B16 melanoma BL6", "type": "in vivo, Mice (C57BL/6)", "conditions": "MTD/MED", "text": "(§3) Mice (C57BL/6, Charles River Japan) were subcutaneously transplanted with B16 melanoma BL6 (Cancer Res., Poste, G., Fidler, I. J. et al., 1980, 40:1636; Bioorg. Med. Chem. Lett., Takeda, Y. et al., 2003, 13:185-190), or M5076 (obtained from Japanese Foundation for Cancer Research), which is a histiocytoma expressing P-gp. Four days after the transplantation in the case of B16 melanoma BL6, or 8 to 10 days after the transplantation in the case of M5076, each test compound suspended in a 0.5% aqueous solution of carboxymethylcellulose sodium, or dissolved in EtOH:Tween 80:5% glucose=5:5:90 (v/v %) was orally (po) or intravenously (iv) administered to the mice. Ten days after the administration in the case of B16 melanoma BL6, or 8 to 10 days after the administration in the case of M5076, the mice were dissected, and tumor weights were measured. The antitumor effect was calculated in accordance with the following equation.\n(§4) [1−(Average tumor weight of compound administration group/average tumor weight of solvent administration group)]×100\n(§5) An antitumor effect of 58% or more was considered effective (Int. J. Cancer, 1989, 43:637-44), and the maximum tolerance dose (MTD, maximum dose not causing death, mg/kg) and minimum effective dose (MED, mg/kg) showing effectiveness were obtained, respectively. The therapeutic index was calculated in accordance with the equation: MTD/MED.\n(§6) ND means that the test was not performed. The effective dose range means the range of from MED to MTD."}, "[4]": {"system": "M5076 (histiocytoma expressing P-gp)", "test": "Antitumor effect in mice subcutaneously transplanted with M5076", "type": "in vivo, Mice (C57BL/6)", "conditions": "for Therapeutic index: MTD/MED; for Effective dose range: range from MED to MTD, antitumor effect of 58% or more considered effective", "text": "as §3, §4, §5, §6"}, "[5]": {"system": "NCI-H460 (human lung cancer cell line)", "test": "Anti-cell activity (MTT) against human tumor cell line NCI-H460", "type": "cell-based", "conditions": "72 h, NCI-H460, cultured three days, read-out: NCI-H460 (GI50 value, ng/mL)", "experimental": "as §1, §2"}, "[6]": {"conditions": "aqueous buffer, second solution for disintegration test, pH 6.8, room temperature, read-out: Solubility (μg/mL) pH 6.8"}, "[7]": {"conditions": "simulated gastric fluid, first solution for disintegration test, pH 1.2, room temperature, read-out: Solubility (μg/mL) pH 1.2"}},
  "note": "Read-outs that look alike come from different tables or passages of the source.",
  "data": [
    {"compound": "COC1CN(C[C@@H]2O[C@@H]3C4=C(C)[C@@H](OC(=O)[C@H](O)[C@@H](NC(=O)OC(C)(C)C)c5ncccc5F)C[C@@](O)([C@@H](OC(=O)c5ccccc5)[C@H]5[C@@](C)(CC[C@H]6OC[C@]65OC(C)=O)[C@@H]3O2)C4(C)C)C1", "note": "[Example 8, (1S,2S,3R,4S,5R,8R,9S,10R,13S)-4-(Acetoxy)-2-(benzoyloxy)-5,20-epoxy-1-hydroxy-9,10-[(1S)-2-(3-methoxyazetidino)ethylidenedioxy]tax-11-en-13-yl (2R,3S)-3-(tert-butoxycarbonylamino)-3-(3-fluoro-2-pyridyl)-2-hydroxypropionate]", "values": [
      {"measurement": "GI50", "setting": "[1]", "result": 0.155, "unit": "ng/mL"},
      {"measurement": "solubility", "setting": "[2]; [6]", "result": 10, "unit": "µg/mL"},
      {"measurement": "solubility", "setting": "[2]; [7]", "result": 600, "unit": "µg/mL"},
      {"measurement": "GI50", "setting": "[3]", "result": 0.236, "unit": "ng/mL"},
      {"measurement": "Therapeutic index", "setting": "B16 melanoma BL6; B16 Melanoma BL6, po", "result": 2.9},
      {"measurement": "Therapeutic index", "setting": "[4]; M5076, po", "result": 1.4},
      {"measurement": "Effective dose range", "setting": "[4]; M5076, po", "result": "21.0 to 30.0", "unit": "mg/kg"},
      {"measurement": "GI50", "setting": "[5]", "result": 0.128, "unit": "ng/mL"}
    ]},
    {"compound": "CC(=O)O[C@@]12CO[C@@H]1CC[C@@]1(C)[C@@H]3O[C@H](CN4CCC4)O[C@@H]3C3=C(C)[C@@H](OC(=O)[C@H](O)[C@@H](NC(=O)OC(C)(C)C)c4ncccc4F)C[C@@](O)([C@@H](OC(=O)c4ccccc4)[C@@H]12)C3(C)C", "note": "[Example 2, (1S,2S,3R,4S,5R,8R,9S,10R,13S)-4-(Acetoxy)-9,10-[(1S)-2-(azetidino)ethylidenedioxy]-2-(benzoyloxy)-5,20-epoxy-1-hydroxytax-11-en-13-yl (2R,3S)-3-(tert-butoxycarbonylamino)-3-(3-fluoro-2-pyridyl)-2-hydroxypropionate]", "values": [
      {"measurement": "GI50", "setting": "[1]", "result": 0.669, "unit": "ng/mL"},
      {"measurement": "solubility", "setting": "[2]; [6]", "result": 170, "unit": "µg/mL"},
      {"measurement": "solubility", "setting": "[2]; [7]", "result": 1100, "unit": "µg/mL"},
      {"measurement": "GI50", "setting": "[3]", "result": 2.31, "unit": "ng/mL"},
      {"measurement": "Therapeutic index", "setting": "B16 melanoma BL6; B16 Melanoma BL6, iv", "result": 2.9},
      {"measurement": "Therapeutic index", "setting": "B16 melanoma BL6; B16 Melanoma BL6, po", "result": 2.9},
      {"measurement": "Therapeutic index", "setting": "[4]; M5076, iv", "result": 1.0},
      {"measurement": "Effective dose range", "setting": "[4]; M5076, iv", "result": 14.7, "unit": "mg/kg"},
      {"measurement": "Therapeutic index", "setting": "[4]; M5076, po", "result": 2.0},
      {"measurement": "Effective dose range", "setting": "[4]; M5076, po", "result": "13.7 to 28", "unit": "mg/kg"},
      {"measurement": "GI50", "setting": "[5]", "result": 0.606, "unit": "ng/mL"}
    ]}
  ]
}
